Laboratory results from article PMC11597518, “Pharmacometabolomics Approach to Explore Pharmacokinetic Variation and Clinical Characteristics of a Single Dose of Desvenlafaxine in Healthy Volunteers” (Pharmaceutics, 2024).
Several values for one entry are separate records, joined by “and”; a condition that tells them apart may be missing. Equal entries are not always repeated. Where two headings read alike, the source gives them in different places.

Columns and labels:
monoamine oxidase = tested on: monoamine oxidase; parameters: method as in PMID 20694066; settings: cited from earlier work
[1] = Single-dose (Pristiq 100 mg, oral) pharmacokinetics in healthy volunteers, plasma LC-MS/MS, non-compartmental; assay type: in vivo, human
Description: The present study was nested in a single-dose, open-label, randomized, pharmaco-bioequivalence study performed under biosafety and ethical standards. The data used were derived from 35 healthy volunteers who received the reference drug (Pristiq®, by Pfizer, Newbridge–Ireland) and who were selected for the study after assessment of their health status via clinical evaluation and a comprehensive set of laboratory tests. The same parameters were used to monitor adverse events post study.
The analytical method was validated according to the respective resolution of the Agência Nacional de Vigilância Sanitária [Brazilian Public Health Surveillance Agency] [9]. The study used an LC-MS/MS system to verify quantification and calculate pharmacokinetic parameters and performed chromatographic separations in an LC-20AD analytical pump (Shimadzu-Kyoto, Japan) using a SIL-20A HT autosampler (Shimadzu-Kyoto, Japan), coupled with mass spectrometry analyses using a Quattro Micro (Micromass, Newcastle, UK) mass spectrometer equipped with an electrospray ionization (ESI) source. […] was detected via a multiple reaction monitoring (MRM) transition of 264.33 > 58.15, and orphenadrine was detected via an MRM transition of 270.32 > 181.26. Data was acquired using MassLynx 4.1 (Waters, Newcastle, UK). More information on the validation method can be found in the Supplementary Materials, including chromatograms for the selectivity assay (Figure S1). Pharmacokinetic parameters were calculated employing a non-compartmental statistic using WinNonLin 8.3 software (Pharsight, New Jersey, USA).
Volunteers and Study Design
The study started with 48 enrolled participants. Of these, 13 participants desisted after drug administration. Of the 35 remaining participants, 23 different adverse events were reported for some of them.
The reference formulation was desvenlafaxine succinate monohydrate controlled-release coated tablet of 100 mg Pristiq® with administration of one single-dose tablet. The volunteers were hospitalized at 7:30 p.m. and had supper before 9:30 p.m. After an overnight fast, they received (at ∼5:40 a.m.) a tablet of 100 mg desvenlafaxine succinate monohydrate with 200 mL of water. The volunt eers then fasted for 4 h, after which period a standard lunch was served. A specific high-calorie diet was administered thirty minutes before taking the medication; Lunch: 4 hours after taking the medication; Afternoon snack:
8 hours after taking the medication; Dinner: 10 hours after taking the medication.
It was necessary to observe the ethical principle of non-maleficence due to the adverse event of nausea being considered very common (≥ 10%). the antiemetic (Dramin® B6 DL - IV - 30 mg / 100 mL saline / 30 minutes) was administered twice: the first dose immediately after administration of the study medication and a second dose 5:00 hours after administration of the study medication.
At 2 h before and 6, 8 and 12 h after the dose administration, vital signs were checked.
The recruitment period was 24 h, during which period, blood samples (8 mL) from a suitable antecubital vein were collected, post-dosing via an indwelling catheter, into […]
samples were centrifuged at ∼2,000×g for 10 min at 4°C, and the plasma was stored at - 70°C until assayed. Samples were handled under yellow light, due to the photosensitivity […]
Determination of Pharmacokinetic Profile by LC-MS/MS
Chromatographic separations were performed in an LC-20AD analytical pump and SIL-20A HT autosampler from Shimadzu. The stationary phase employed a Luna AgilLuna Agilent Polaris 5 µm C18-A 50 x 2,0mm column (Phenomenex). The mobile phase consisted of a solution of 10 mM ammonium acetate with 0.1% formic acid (Phase A) and acetonitrile with 0.1% formic acid (Phase B), flowing at 0.3 mL/min in proportion (2:8). The autosampler was maintained at 22°C, with an injection volume of 10 µl and 2.2- […]
Mass spectrometry was conducted on a Quattro Micro mass spectrometer from […]

α1-adrenergic receptors = tested on: α1-adrenergic receptors; parameters: method as in PMID 20694066; settings: cited from earlier work
[2] = tested on: muscarinic–cholinergic receptors; parameters: method as in PMID 20694066; settings: cited from earlier work
[3] = parameters: method as in doi:10.4172/jbb.1000130; settings: cited from earlier work
[4] = parameters: method as in doi:10.4172/jbb.1000130; settings: cited from earlier work; remark: listed apart in the source
[5] = tested on: H1-histaminergic receptors; parameters: method as in PMID 20694066; settings: cited from earlier work
[6] = cited from earlier work
[7] = Adverse events monitored by clinical evaluation and laboratory tests after single dose; assay type: in vivo, human
Description: The present study was nested in a single-dose, open-label, randomized, pharmaco-bioequivalence study performed under biosafety and ethical standards. The data used were derived from 35 healthy volunteers who received the reference drug ([…]®, by Pfizer, Newbridge-Ireland) and who were selected for the study after assessment of their health status via clinical evaluation and a comprehensive set of laboratory tests. The same parameters were used to monitor adverse events post study. At the beginning and end of the study, all participants underwent clinical evaluation and laboratory tests using the reference values proposed by […] or without clinical significance, according to a medical report. A complete summary of participants' characteristics is available in Table S1. Clinical and laboratory characteristics outside the normal referential criteria were reported as adverse events (Table S2). page 3: Pharmaceutics 2024, 16, 1385 3 of 6 1. Supplementary Methods Volunteers and Study Design The study started with 48 enrolled participants. Of these, 13 participants desisted after drug administration. Of the 35 remaining participants, 23 different adverse events were reported for some of them. The reference formulation was desvenlafaxine succinate monohydrate controlled- release coated tablet of 100 mg […]® with administration of one single-dose tablet. The volunteers were hospitalized at 7:30 p.m. and had supper before 9:30 p.m. After an overnight fast, they received (at ∼5:40 a.m.) a tablet of 100 mg desvenlafaxine succinate monohydrate with 200 mL of water. The volunt eers then fasted for 4 h, after which period a standard lunch was served. A specific high-calorie diet was administered thirty minutes before taking the medication; Lunch: 4 hours after taking the medication; Afternoon snack: 8 hours after taking the medication; Dinner: 10 hours after taking the medication. It was necessary to observe the ethical principle of non-maleficence due to the adverse event of nausea being considered very common (≥ 10%). the antiemetic ([…] - 30 mg / 100 mL saline / 30 minutes) was administered twice: the first dose immediately after administration of the study medication and a second dose 5:00 hours after administration of the study medication. At 2 h before and 6, 8 and 12 h after the dose administration, vital signs were checked. The recruitment period was 24 h, during which period, blood samples (8 mL) from a suitable antecubital vein were collected, post-dosing via an indwelling catheter, into Heparin lithium-containing tubes at 0, 1:00, 2:00, 3:00, 4:00, 5:00, 6:00, 6:15, 6:30, 6:45, 7:00, 7:15, 7:30, 7:45, 8:00, 8:20, 8:40, 9:00, 10:00, 12:00, 24:00, and 36:00, 48:00, 72.0h. The blood samples were centrifuged at ∼2,000×g for 10 min at 4°C, and the plasma was stored at - 70°C until assayed. Samples were handled under yellow light, due to the photosensitivity of the drug. Determination of Pharmacokinetic Profile by LC-MS/MS Chromatographic separations were performed in an LC-20AD analytical pump and SIL-20A HT autosampler from Shimadzu. The stationary phase employed a Luna AgilLuna Agilent Polaris 5 μm […] 50 x 2,0mm column (Phenomenex). The mobile phase consisted of a solution of 10 mM ammonium acetate with 0.1% formic acid (Phase A) and acetonitrile with 0.1% formic acid (Phase B), flowing at 0.3 mL/min in proportion (2:8). The autosampler was maintained at 22°C, with an injection volume of 10 μl and 2.2- minute duration. Mass spectrometry was conducted on a Quattro Micro mass spectrometer from Micromass, equipped with an electrospray ionization (ESI) source. […]

[8] = 35 healthy volunteers, single oral 100 mg Pristiq, plasma
[9] = 35 participants, single 100 mg dose

CN(C)CC(c1ccc(O)cc1)C1(O)CCCCC1 (stereo not shown) [desvenlafaxine, O-desmethylvenlafaxine]
inhibition of monoamine oxidase (monoamine oxidase): nor does it inhibit
AUC 0-t, Maximum [1, 8]: 10,338.49 h*ng/mL
AUC 0-t, Minimum [1, 8]: 2711.68 ng·h/mL
Cmax, Maximum [1, 8]: 469.15 ng/mL
Cmax, Minimum [1, 8]: 123.16 ng/mL
Kel, Maximum [1, 8]: 0.11 h⁻¹
Kel, Minimum [1, 8]: 0.06 h⁻¹
T ½, Maximum [1, 8]: 12.00 h
T ½, Minimum [1, 8]: 6.63 h
Tmax, Maximum [1, 8]: 12.00 h
Tmax, Minimum [1, 8]: 4.00 h
AUC(0-t) ([1]; human, plasma, po, 100 mg, 35 healthy volunteers, single oral 100 mg Pristiq, plasma, read-out: AUC 0-t, Mean): 6050 ng·h/mL
AUC(0-t) ([1]; human, plasma, po, 100 mg, 35 healthy volunteers, single oral 100 mg Pristiq, plasma, read-out: AUC 0-t, Median): 5780 ng·h/mL
Cmax ([1]; human, plasma, po, 100 mg, 35 healthy volunteers, single oral 100 mg Pristiq, plasma, read-out: Cmax, Mean): 290 ng/mL
Cmax ([1]; human, plasma, po, 100 mg, 35 healthy volunteers, single oral 100 mg Pristiq, plasma, read-out: Cmax, Median): 276 ng/mL
k el ([1]; human, plasma, po, 100 mg, 35 healthy volunteers, single oral 100 mg Pristiq, plasma, read-out: Kel, Mean (converted)): 2.22e-05 s⁻¹
k el ([1]; human, plasma, po, 100 mg, 35 healthy volunteers, single oral 100 mg Pristiq, plasma, read-out: Kel, Median (converted)): 1.94e-05 s⁻¹
half-life ([1]; human, plasma, po, 100 mg, 35 healthy volunteers, single oral 100 mg Pristiq, plasma, read-out: T ½, Mean (converted)): 566 min
half-life ([1]; human, plasma, po, 100 mg, 35 healthy volunteers, single oral 100 mg Pristiq, plasma, read-out: T ½, Median (converted)): 561 min
Tmax ([1]; human, plasma, po, 100 mg, 35 healthy volunteers, single oral 100 mg Pristiq, plasma, read-out: Tmax, Mean): 7.4 h
Tmax ([1]; human, plasma, po, 100 mg, 35 healthy volunteers, single oral 100 mg Pristiq, plasma, read-out: Tmax, Median): 7.5 h
k el ([1]; human, plasma, po, 100 mg, individual participants, single oral 100 mg Pristiq, read-out: Kel (converted)): 1.94e-05 s⁻¹
half-life ([1]; human, plasma, po, 100 mg, individual participants, single oral 100 mg Pristiq, read-out: T1/2 (converted)): 606 min
Tmax ([1]; individual participants P1-P35, single oral 100 mg Pristiq): 6.50 h and 8.67 h and 6.25 h and 4.00 h and 6.00 h and 8.33 h and 6.75 h and 7.00 h and 10.00 h and 5.00 h and 7.75 h and 12.00 h and 9.00 h
effect on α1-adrenergic receptors (α1-adrenergic receptors): does not significantly affect
effect on muscarinic–cholinergic receptors [2]: does not significantly affect
plasma protein binding [3]: 30%
volume of distribution ([4]; after intravenous administration): 3.4 L/kg
excreted as the glucuronide metabolite [4]: ~ 19%
excreted as the oxidative metabolite (N,O-didesmethylvenlafaxine) [4]: < 5%
excreted unchanged [4]: ~ 45%
mean half-life [4]: approximately 11 h
bioavailability ([4]; oral intake): 80%
time to maximum plasma concentrations (Cmax) ([4]; oral intake): 7.5 h
effect on H1-histaminergic receptors [5]: does not significantly affect
blood cholesterol and triglyceride levels [6]: can increase
participants with increased blood pressure ([6]; five participants of a clinical study): 10%
systolic and diastolic blood pressure change ([6]; short-term desvenlafaxine treatment): small but statistically significant increases
frequency of the adverse event nausea (very common) ([6]; stated as known frequency, no reference given): ≥ 10%
Alanine Aminotransferase Increased, events count [7, 9]: 3
Altered Erythrogram, events count [7, 9]: 1
Altered Leukogram, events count [7, 9]: 3
Anxiety, events count [7, 9]: 1
Aspartate Transaminase Increased, events count [7, 9]: 5
Cephalea, events count [7, 9]: 3
Diarrhea, events count [7, 9]: 1
General malaise, events count [7, 9]: 6
Incresead triglycerides, events count [7, 9]: 2
Leukocyturia, events count [7, 9]: 2
Nausea, events count [7, 9]: 5
Syncope, events count [7, 9]: 1
Total Cholesterol Increased, events count [7, 9]: 1
Vomiting, events count [7, 9]: 6
Alanine Aminotransferase Increased, intensity ([7]; human, in vivo): Mild
Altered Erythrogram, intensity ([7]; human, in vivo): Mild
Altered Leukogram, intensity ([7]; human, in vivo): Mild
Anxiety, intensity ([7]; human, in vivo): Mild
Aspartate Transaminase Increased, intensity ([7]; human, in vivo): Mild
Cephalea, intensity ([7]; human, in vivo): Mild
Diarrhea, intensity ([7]; human, in vivo): Mild
General malaise, intensity ([7]; human, in vivo): Mild
Incresead triglycerides, intensity ([7]; human, in vivo): Mild
Leukocyturia, intensity ([7]; human, in vivo): Mild
Nausea, intensity ([7]; human, in vivo): Mild
Syncope, intensity ([7]; human, in vivo): Mild
Total Cholesterol Increased, intensity ([7]; human, in vivo): Mild
Vomiting, intensity ([7]; human, in vivo): Mild
